Experimental data from article PMC6968383, “Design, synthesis, in vitro and in vivo evaluation of benzylpiperidine-linked 1,3-dimethylbenzimidazolinones as cholinesterase inhibitors against Alzheimer’s disease” (Journal of Enzyme Inhibition and Medicinal Chemistry, 2019).
Read-outs that look alike come from different tables or passages of the source.

Legend:
[1] = target: T1, AChE (EC 3.1.1.7) from electric eel (Electrophorus electricus, UniProt O42275); assay: biochemical; assay type: biochemical; conditions: for SI (selectivity index = AChE IC50/BChE IC50): eeAChE IC50 / eqBChE IC50; for IC50: eeAChE, mean ± SEM of triplicate independent experiments, read-out: AChE IC50
T1 construct: purchased Sigma-Aldrich
Protocol: (§1) The data were expressed as IC50 values (Table 1).
(§2) The inhibitory activities of the target compounds towards AChE (from Electrophorus electricus (electric eeAChE, Sigma-Aldrich) and horse serum BChE (eqBChE, Sigma-Aldrich) or human AChE – huAChE; human BuChE – huBuChE (huAChE, huBuChE, Sigma-Aldrich) were measured by Ellman’s method. In 96-well plates, a mixture of phosphate buffer (0.1 M, pH 8.0, […]), 5,5′-dithiobis-2-nitrobenzoic acid (DTNB, 60 µL), acetylcholinestrase or butyrylcholinesterase (20 µL, 5 IU/mL) and different concentration of the compound solution (30 µL) was pre-incubated for 5 min followed by the addition of the substrate (acetylthiocholine iodide or butyrylthiocholine iodide, 20 µL). […] The measurement of each concentration for each compound was detected in triplicate. GraphPad Prism 6.0 (GraphPad Software, Inc., La Jolla, CA) was used for data processing. The inhibition curve was fitted by plotting percentage enzyme activity (100% for the reference) versus the logarithm of the concentration of tested compound. The half-maximal inhibitory concentration (IC50) values were calculated according to the inhibition curve and the data were shown in the layout of mean ± SEM by GraphPad Prism 6.0.

[2] = target: T2, BChE (EC 3.1.1.8) from horse serum (Equus caballus, UniProt P81908); assay: biochemical; conditions: eqBChE; mean ± SEM of triplicate independent experiments; read-out: BChE IC50
T2 construct: horse serum BChE (eqBChE, Sigma-Aldrich); purchased Sigma-Aldrich; host or cells: horse serum
Protocol: as §1, §2

liver = assay: Liver histopathological study (HE staining); conditions: 36 h after administration, compared to control group
Excerpt: Figure 7. […] HE staining, original magnification ×200.

[3] = test system: scopolamine-induced cognition impairment in ICR mice; assay: Morris water maze test, scopolamine-induced cognition impairment; assay type: in vivo; conditions: oral 15 mg kg−1, scopolamine 1 mg kg−1 ip, probe trial on sixth day, mean ± SEM n = 6
Protocol: The test included 5 days of learning and memory training and a probe trial on the sixth day.
Scopolamine hydrobromide was supplied by Aladdin Reagents (H1507073, Shanghai, China).
Cognitive function was evaluated by the Morris water maze analysis-management system (SMART 3.0, Panlab, Madrid, Spain), according to the method previously described[30].The maze was placed in a lit room with visual cues at 25 °C. An escape platform (10 cm diameter) was located in the centre of one quadrant of the circular pool (120 cm diameter, 60 cm height) with a depth of 40 cm water. The behavioural study of each mouse included 5 days of learning and memory training and a probe trial on day 6. The animal starting positions faced to the pool wall, and were pseudorandomised for each trial. For the cognitive evaluation, each mouse was individually evaluated on both visible-platform (days 1–2) and hidden-platform (days 3–5) versions of the water maze. All mice received nonspatial pretraining during the first two training days, which prepared them for the subsequent spatial learning test. During the two days, mice were trained to find the platform that was labelled by a small flag (5 cm tall). The hidden platform version was used to determine the retention of memory to find the platform. During the hidden-platform training trials, the escape platform was placed 1 cm below the surface of the water. On each day, the animal was subjected to two trials, each of which lasted for 90 s. The time for the mouse to find the platform (a successful escape) was recorded. […] On the last day (day 6), the platform was removed from its location and the animals were given a probe trial in which they had 90 s to search for the platform. The time taken to reach the missing platform and the number of times the animals crossed the platform location were recorded.
Data for the time of escape latency, the trajectory travelled, and the number of platform location crossings were recorded by SMART 3.0, Panlab, Madrid, Spain and processed by GraphPad Prism 6.0.

[4] = assay type: in vivo; conditions: serum, tacrine 30 mg kg−1, mean ± SEM n = 6
Protocol: . Heparinised serum was obtained after the treatment of 15b and 15j at 8, 22, and 36 h, respectively. The serum levels of ALT and AST are directly proportional to the severity of the liver damage. […]

T2 sequence (P81908 whole entry): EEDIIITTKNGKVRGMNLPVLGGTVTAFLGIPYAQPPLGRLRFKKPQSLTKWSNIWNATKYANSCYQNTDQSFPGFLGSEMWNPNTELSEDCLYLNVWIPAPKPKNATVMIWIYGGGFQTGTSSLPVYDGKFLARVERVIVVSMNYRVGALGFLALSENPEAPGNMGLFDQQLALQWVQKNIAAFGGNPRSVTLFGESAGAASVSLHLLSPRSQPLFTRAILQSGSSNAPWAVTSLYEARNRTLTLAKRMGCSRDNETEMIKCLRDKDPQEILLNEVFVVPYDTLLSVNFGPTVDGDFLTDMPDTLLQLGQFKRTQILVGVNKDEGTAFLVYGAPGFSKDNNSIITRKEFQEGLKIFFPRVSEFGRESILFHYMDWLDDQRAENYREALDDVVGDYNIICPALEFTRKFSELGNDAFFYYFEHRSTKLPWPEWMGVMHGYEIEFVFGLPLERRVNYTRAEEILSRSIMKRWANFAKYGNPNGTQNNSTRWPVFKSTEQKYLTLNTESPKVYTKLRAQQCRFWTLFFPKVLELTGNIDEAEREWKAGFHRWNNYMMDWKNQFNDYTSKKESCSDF
T1 sequence (O42275 24-633): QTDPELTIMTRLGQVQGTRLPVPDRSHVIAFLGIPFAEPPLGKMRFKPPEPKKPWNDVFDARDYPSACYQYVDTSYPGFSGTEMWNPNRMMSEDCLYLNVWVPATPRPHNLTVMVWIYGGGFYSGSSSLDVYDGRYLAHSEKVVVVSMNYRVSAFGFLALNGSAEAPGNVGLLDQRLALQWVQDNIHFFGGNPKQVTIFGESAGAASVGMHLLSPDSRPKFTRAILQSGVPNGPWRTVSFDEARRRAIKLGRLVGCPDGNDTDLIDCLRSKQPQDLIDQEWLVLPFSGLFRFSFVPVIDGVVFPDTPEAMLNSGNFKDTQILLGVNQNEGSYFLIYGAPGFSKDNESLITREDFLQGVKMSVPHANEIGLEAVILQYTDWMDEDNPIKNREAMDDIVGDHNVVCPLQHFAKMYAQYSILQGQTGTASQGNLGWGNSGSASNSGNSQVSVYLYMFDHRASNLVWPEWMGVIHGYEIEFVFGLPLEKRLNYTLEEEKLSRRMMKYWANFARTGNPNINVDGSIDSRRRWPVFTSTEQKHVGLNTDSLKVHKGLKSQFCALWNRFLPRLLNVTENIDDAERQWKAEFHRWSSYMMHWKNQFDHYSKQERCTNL

Cn1c(=O)n(C)c2cc(S(=O)(=O)NCC3CCN(Cc4cccc(Cl)c4)CC3)ccc21 [Compound 15g, N-((1–(3-chlorobenzyl)piperidin-4-yl)methyl)-1,3-dimethyl-2-oxo-2,3-dihydro-1H-benzo[d]imidazole-5-sulphonamide]
SI (selectivity index = AChE IC50/BChE IC50) [1]: 0.15 | IC50 [1]: 150 ± 20 nM | IC50 [2]: 1010 ± 460 nM

Cn1c(=O)n(C)c2cc(S(=O)(=O)NCC3CCN(Cc4ccc(Cl)cc4)CC3)ccc21 [Compound 15h, N-((1–(4-chlorobenzyl)piperidin-4-yl)methyl)-1,3-dimethyl-2-oxo-2,3-dihydro-1H-benzo[d]imidazole-5-sulphonamide]
SI (selectivity index = AChE IC50/BChE IC50) [1]: 0.87 | IC50 [1]: 1950 ± 280 nM | IC50 [2]: 2230 ± 810 nM

Cn1c(=O)n(C)c2cc(S(=O)(=O)NCC3CCN(Cc4ccccc4Br)CC3)ccc21 [Compound 15i, N-((1–(2-bromobenzyl)piperidin-4-yl)methyl)-1,3-dimethyl-2-oxo-2,3-dihydro-1H-benzo[d]imidazole-5-sulphonamide]
IC50 [1]: 420 ± 60 nM | IC50 [2]: 220 ± 40 nM

Nc1c2c(nc3ccccc13)CCCC2 [Tacrine]
morphologic changes in liver (liver): did not result in remarkable morphologic changes in liver | Distance to target [3]: 310.01 ± 9.54 cm | Latency to target [3]: 12.06 ± 0.37 s | ALT ([4]; 8 h after treatment): 32.7 ± 1.7 U/L | AST ([4]; 8 h after treatment): 95.1 ± 9.5 U/L | ALT ([4]; 22 h after treatment): 31.7 ± 1.2 U/L | AST ([4]; 22 h after treatment): 108.9 ± 6.1 U/L | ALT ([4]; 36 h after treatment): 35.8 ± 6.7 U/L | AST ([4]; 36 h after treatment): 110.4 ± 9.4 U/L
